Data published in patent US20120053076A1, “METHODS FOR IDENTIFICATION” (Cambridge Enterprise Limited, priority 2009, published 2012).

Experiments:
Jurkat T cells = assay: SDF-1α induced migration of parental Jurkat T cells; format: cell-based, human
Procedure: Results: The level of the SDF-1α, receptor CXCR4 was similar on Jurkat-D3B and the parental Jurkat T cell line. Furthermore, the Jurkat-D3B cells responded to SDF-1α in a Transwell® chemotaxis assay (see Example 1 for the methodology employed) over a similar concentration range to the parental cell line.
Jurkat T cells and Jurkat-D3B cells were induced to migrate in response to 100 ng/ml SDF-1α (R&D systems; the concentration of SDF-1α which induced maximal cell migration in both lines). The BSCI BN83250 was then added at various concentrations between 0 nM and 1000 nM (each in triplicate) to both the upper and lower compartments (at the same concentration in each compartment, so as not to create a gradient of BSCI concentration). DMSO (1% final concentration) was used as the vehicle, and was present in all wells at equal concentration.

Oral bioavailability = settings: in vivo
Jurkat-D3B cells = assay: SDF-1α induced migration of Jurkat-D3B cells expressing sstr2; format: cell-based, human
Procedure: Methods: Total mRNA was prepared from Panc-1 cells (a human pancreas cell line which is well known to express high levels of sstr2) using the RNAqueous 4PCR kit (Ambion, Cat code #1914) in accordance with the manufacturer's instructions. The mRNA was then reverse transcribed (using the RETROscript kit; Ambio) to yield a cDNA preparation. A full length cDNA of the sstr2 gene was then obtained by PCR (using a Peltier PTC-200 thermal cycler using the following cycle times and conditions: 94° C. for 2 min, followed by 30 cycles of 94° C., for 30 sec, 55° C. for 30 sec, 72° C. for 1 min and finally 72° C. for 10 min), and isolated by preparative gel electrophoresis. The sequence of the sstr2 cDNA was confirmed by sequencing. The sstr2 cDNA was treated with EcoRI and Xhol to generate sticky ends, which allowed directional cloning into the polylinker of the plasmid pcDNA3.1+ (Invitrogen) followed by ligation (100 ligation reactions were run with 400 T4 DNA ligase (New England Biolabs) and the maximal amounts of DNA with an insert:plasmid ratio of 3:1 in ligase buffer incubated overnight at 13° C.). […]
A number of individual cell lines were obtained in this way, which expressed significant levels of sstr2 on the cell surface, detected by flow cytometry using the human-sstr2 antibody (Sigma, 50694; see Example 3 for details of the flow cytometry protocol used). […]

Compound | Inhibition of SDF-1α induced migration of Jurkat T cells, in words (Jurkat T cells) | Oral bioavailability, in words (Oral bioavailability) | Inhibition of Jurkat-D3B migration, in words (Jurkat-D3B cells)
(S)-3-(2′,2′-dimethyldodecanoyl)amino-caprolactam [BN83250] | little or no effect | only poorly orally bioavailable | 
CC(C)(C)C(=O)N[C@H]1CCCNC1=O [Valerolactam, (S)-3-(2′,2′-dimethylpropionoylamino)-tetrahydropyridin-2-one] |  |  | sensitive to inhibition
